For orientation: EC50 means the concentration needed to bring the measured effect to its halfway point.

One test relates to HBV. The test is described as follows: microbe, parasite or virus in culture. The format is cell-based. The settings on record: Hepatitis B virus; HepG2.117 cells, 72 hours, HBV viral copy numbers in supernatant; read-out: EC50.
For test [1], the system named is VSV-G pseudotyped HIV NL4-3. In words: microbe, parasite or virus in culture. The format is cell-based. The settings on record: Human immunodeficiency virus 1, NL43, 72 h.

As to `CC(Cc1ccc2c(N)nc(N)nn12)OCP(=O)(O)O` (stereo not drawn) [Compound 9, (((1-(2,4-diaminopyrrolo[2,1-f][1,2,4]triazin-7-yl)propan-2-yl)oxy)methyl) phosphonic Acid], the EC50 is 1 to 10 µM with HBV and below 20 µM in test [1].

Turning to `Nc1ncnc2c(CC(CF)OCP(=O)(O)O)cnn12` (stereo not drawn) [Compound 10, (1-(4-aminopyrazolo[1,5-a][1,3,5]triazin-8-yl)-3-fluoropropan-2-yloxy)methylphosphonic Acid], the EC50 in the test on HBV is 1 to 10 µM; in test [1], below 20 µM.

As for `CC(C)OC(=O)OCOP(=O)(CO[C@H](C)Cc1ccc2c(N)ncnn12)OCOC(=O)OC(C)C` [Compound 11], the EC50 is below 1 µM with HBV and below 20 µM in test [1].

In the case of `CC(C)OC(=O)OCOP(=O)(CO[C@H](C)Cc1cnc2c(N)ncnn12)OCOC(=O)OC(C)C` [Compound 12], the EC50 in the test on HBV is below 1 µM; in test [1] it was below 20 µM.

`CC(C)OC(=O)OCOP(=O)(CO[C@H](C)Cc1cnn2c(N)ncnc12)OCOC(=O)OC(C)C` [Compound 13]: the EC50 in the test on HBV is above 100 µM; in test [1], below 20 µM.

With `CC(C)OC(=O)OCOP(=O)(CO[C@@H](C)Cc1cnn2c(N)ncnc12)OCOC(=O)OC(C)C` [Compound 14], the EC50 with HBV is below 1 µM; in test [1], below 20 µM.

Values taken from US11472826B2, “Acyclic antivirals” (priority 2016, dated 2022).
